Experimental data published in patent publication US9925263B2, “Liquid pharmaceutical formulations for injection comprising procaine and uses thereof” (EAGLE BIOLOGICS, INC., priority 2013, dated 2018).

Legend:
REMICADE® [1] = assay: Monomer content of […]® solutions by size exclusion chromatography; format: physicochemical; conditions: 0.25M agent
Experimental: Biophysical properties of solutions of […]® formulated with 0.25 M CSAA were assessed over 90 days. Samples of […]® formulated with 0.25 M CSAA were prepared as described in Example 1 above.
(§1) Following reconstitution, the viscosity of each solution was measured using the microfluidic viscometer as described in previous examples. The solutions were then back-loaded into 1 mL BD insulin syringes with 27, 29, or 31 gauge fixed needles. The force required to extrude the concentrated […]® solutions was then measured using an Instron at a rate of displacement equivalent to a fluid flow rate of 3 mL/min. The expelled solution was collected from the syringe and analyzed by size-exclusion chromatography.

biosimilar ERBITUX® = assay: Viscosity of aqueous solutions of biosimilar ERBITUX® with viscosity-lowering agents; conditions: for Viscosity / Fold Reduction: pH 7.0, 0.25M agent; for Fold Reduction: vs phosphate buffer
REMICADE® [2] = assay: Monomer content of […]® solutions by size exclusion chromatography; format: physicochemical; conditions: storage at room temperature, CSAA sample: REMICADE 219 mg/mL, pH 7, 0.25M CSAA
REMICADE® [3] = assay: Syringe extrusion force of concentrated […]® solutions (Instron); format: physicochemical; conditions: 1 mL BD insulin syringe, 3 mL/min, REMICADE 224-230 mg/mL, 0.25M agent
Experimental: as §1

antigen = assay: Antigen binding, […]®-specific ELISA assay; conditions: storage at room temperature, CSAA sample: REMICADE 219 mg/mL, pH 7, 0.25M CSAA
Experimental: Biophysical properties of solutions of […]® formulated with 0.25 M CSAA were assessed over 90 days. Samples of […]® formulated with 0.25 M CSAA were prepared as described in Example 1 above. […] (Table 20). Additionally, antigen binding of this processed […]® protein was measured with a […]®-specific ELISA assay and no decrease in binding was seen between days 0 and […] (Table 20).

biosimilar AVASTIN® = assay: Viscosity of aqueous solutions of biosimilar AVASTIN® with viscosity-lowering agents; format: physicochemical
biosimilar RITUXAN® = assay: Viscosity of aqueous solutions of biosimilar RITUXAN® with viscosity-lowering agents; conditions: 202 ± 2 mg/mL RITUXAN; 0.25M agent; 25° C., pH 7.0;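 further: absolute viscosity of aqueous antibody solutions determined by microfluidic viscometry (mVROC chip, 50 micron channel) at several flow rates after 5 min equilibration, mean of at least three readings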
VECTIBIX® = assay: Viscosity of aqueous solutions of VECTIBIX® with viscosity-lowering agents; format: physicochemical; conditions: 0.25M agent, 25° C., pH 7.0
Excerpt: (§2) (unless otherwise indicated).

HERCEPTIN® = assay: Viscosity of aqueous solutions of HERCEPTIN® with viscosity-lowering agents; format: physicochemical; conditions: 0.25M salt, 25° C., pH 7.0
Experimental: All viscosities of well-mixed aqueous mAb solutions were measured using either a mVROC microfluidic viscometer (RheoSense) or a DV2T cone and plate viscometer (Brookfield; “C & P”) after a 5 minute equilibration at 25° C. (unless otherwise indicated). The mVROC viscometer was equipped with an “A” or “B” chip, each manufactured with a 50 micron channel. Typically, 0.10 mL of protein solution was back-loaded into a gastight microlab instrument syringe (Hamilton; 100 μL), affixed to the chip, and measured at multiple flow rates, approximately 20%, 40%, and 60% of the maximum pressure for each chip. […] An average absolute viscosity and standard deviation was then calculated from at least these three measurements. The C & P viscometer was equipped with a CPE40 or CPE52 spindle (cone angle of 0.8° and 3.0°, respectively) and 0.50 mL samples were measured at multiple shear rates between 2 and 400 s^−1. Specifically, samples were measured for 30 seconds each at 22.58, 24.38, 26.25, 28.13, 30, 31.88, 45, 67.5, 90, 112.5, 135, 157.5, 180, 202.5, 247, 270, 292.5, 315, 337.5, 360, 382, 400 s^−1, starting at a shear rate that gave at least 10% torque, and continuing until instrument torque reached 100%. An extrapolated zero-shear viscosity was then determined from a plot of dynamic viscosity versus shear rate for the samples measured on a DV2T cone and plate viscometer. The extrapolated zero-shear viscosities reported are the average and standard deviation of at least three measurements.
(§3) Viscosities were measured using a RheoSense mVROC microfluidic viscometer equipped with an “A” or “B” chip.
Viscosities reported were measured on a RheoSense mVROC microfluidic viscometer.

Sprague-Dawley rats = assay: Subcutaneous injection toxicity and irritation (Draize evaluation scores); format: in vivo, rat; conditions: 0.5 mL of 0.25 M CSAA subcutaneously, 1 to 3 daily injections
Experimental: Thirty 11-week old Sprague-Dawley rats were separated into 6 groups of 5 rats each (3 saline control groups and 3 CSAA groups). The rats were injected subcutaneously with 0.5 mL of either endotoxin-free phosphate-buffered saline or endotoxin-free 0.25 M CSAA according to the following schedule: One group from each condition was injected once on day 1 and then sacrificed […]; one group from each condition was injected once on day 1 and once on day 2 and then sacrificed 24 hours after the second injection; and one group from each condition was injected once on day 1, once on day 2, and once on day 3, and then sacrificed 24 hours after the third injection.
Clinical observations were recorded for any pharmaco-toxicological signs pre-dose, immediately post-dose, at 1 and 4 hours (±15 minutes) post-dose, and daily thereafter. Irritation, if any, at injection sites was scored using the Draize evaluation scores pre-dose, immediately post-dose, at 1 hour (±15 minutes) post dose, and prior to sacrifice.

REMICADE® [4] = assay: Viscosity of aqueous solutions of […]® with viscosity-lowering agents; format: physicochemical
ARZERRA® = assay: Viscosity of aqueous solutions of ARZERRA® with viscosity-lowering agents; format: physicochemical; conditions: 274 ± 10 mg/mL ARZERRA; 0.25M agent; 25° C., pH 7.0
Excerpt: as §2

TYSABRI® = assay: Viscosity of aqueous solutions of TYSABRI® with viscosity-lowering agents; format: physicochemical; conditions: 0.25M agent, 25° C., pH 7.0
Experimental: All viscosities of well-mixed aqueous mAb solutions were measured using either a mVROC microfluidic viscometer (RheoSense) or a DV2T cone and plate viscometer (Brookfield; “C & P”) after a 5 minute equilibration at 25° C. […] The mVROC viscometer was equipped with an “A” or “B” chip, each manufactured with a 50 micron channel. Typically, 0.10 mL of protein solution was back-loaded into a gastight microlab instrument syringe (Hamilton; 100 μL), affixed to the chip, and measured at multiple flow rates, approximately 20%, 40%, and 60% of the maximum pressure for each chip. […] An average absolute viscosity and standard deviation was then calculated from at least these three measurements. The C & P viscometer was equipped with a CPE40 or CPE52 spindle (cone angle of 0.8° and 3.0°, respectively) and 0.50 mL samples were measured at multiple shear rates between 2 and 400 s^−1. Specifically, samples were measured for 30 seconds each at 22.58, 24.38, 26.25, 28.13, 30, 31.88, 45, 67.5, 90, 112.5, 135, 157.5, 180, 202.5, 247, 270, 292.5, 315, 337.5, 360, 382, 400 s^−1, starting at a shear rate that gave at least 10% torque, and continuing until instrument torque reached 100%. An extrapolated zero-shear viscosity was then determined from a plot of dynamic viscosity versus shear rate for the samples measured on a DV2T cone and plate viscometer. The extrapolated zero-shear viscosities reported are the average and standard deviation of at least three measurements.
as §3
Subsequently, the aqueous drug product was purified, buffer exchanged, concentrated, dried, reconstituted, and analyzed as described in the same manner. Viscosities reported were measured on a RheoSense mVROC microfluidic viscometer.

## camphorsulfonic acid arginine [CSAA]
REMICADE® [1]; expelled through 27 gauge needle, REMICADE 224-230 mg/mL (per agent)
  % Monomer: 99.5 ± 0.1%
REMICADE® [1]; expelled through 29 gauge needle, REMICADE 224-230 mg/mL (per agent)
  % Monomer: 99.4 ± 0.2%
REMICADE® [1]; expelled through 31 gauge needle, REMICADE 224-230 mg/mL (per agent)
  % Monomer: 99.5 ± 0.2%
REMICADE® [1]; pre-syringe, REMICADE 220-230 mg/mL (per agent)
  % Monomer: 99.7 ± 0.3%
Biosimilar ERBITUX®; 0.25 M CSAA, 202±5, 229±5, 253±4 mg/mL mAb, 25° C., FIG. 5
  pH of viscosity minimum: ~7.0
Biosimilar ERBITUX®; 222 ± 5 mg/mL mAb, 25° C.
  Viscosity: 52.5 ± 1.0 cP
  Fold Reduction: 21.5 fold
Biosimilar ERBITUX®; 225 ± 5 mg/mL mAb, 20° C.
  Viscosity: 79.6 ± 0.9 cP
Biosimilar ERBITUX®; 225 ± 5 mg/mL mAb, 25° C.
  Viscosity: 58.0 ± 0.3 cP
Biosimilar ERBITUX®; 225 ± 5 mg/mL mAb, 30° C.
  Viscosity: 46.9 ± 0.6 cP
Biosimilar ERBITUX®; 222 ± 5 mg/mL mAb, 25° C., listed as CSA Arginine
  Fold Reduction: 21.5 fold
REMICADE® [2]; day 0
  % Monomer: 99.9 ± 0.1%
REMICADE® [2]; day 4
  % Monomer: 97.9 ± 0%
REMICADE® [2]; day 7
  % Monomer: 100 ± 0%
REMICADE® [3]; 27 gauge needle
  Syringe Force: 18.4 N
REMICADE® [3]; 29 gauge needle
  Syringe Force: 24.9 N
REMICADE® [3]; 31 gauge needle
  Syringe Force: 33.0 N
antigen; day 0
  % binding (normalized to drug product): 88.6 ± 5.2%
antigen; day 7
  % binding (normalized to drug product): 114 ± 2.4%
Biosimilar AVASTIN®; 200 ± 5 mg/mL mAb, pH 7.0, 25° C., [Salt] 0.25 M of anion, C & P viscometer
  Viscosity: 48.5 ± 1.9 cP
Biosimilar AVASTIN®; 200±9 mg/mL mAb, 0.25 M CSAA, FIG. 3
  pH of minimum viscosity and maximum viscosity-lowering effect: ~7
Biosimilar AVASTIN®; 228 ± 5 mg/mL mAb, agent 0.25 M, 25° C., pH 7.0
  Viscosity: 116 ± 2 cP
Biosimilar RITUXAN®
  Viscosity: 78.4 ± 0.3
VECTIBIX®; 264 mg/mL VECTIBIX
  Viscosity: 44.3 ± 2.3 cP
VECTIBIX®; 233 ± 4 mg/mL VECTIBIX
  Viscosity: 26.2 ± 6.5 cP
VECTIBIX®; 252 ± 3 mg/mL VECTIBIX
  Viscosity: 27.4 ± 1.2 cP
VECTIBIX®; 291 ± 3 mg/mL VECTIBIX
  Viscosity: 162 ± 1 cP
HERCEPTIN®; 216 ± 0 mg/mL HERCEPTIN
  Viscosity: 55.7 ± 2.3 cP
HERCEPTIN®; 254 ± 3 mg/mL HERCEPTIN
  Viscosity: 78.0 ± 8.7 cP
HERCEPTIN®; 270 ± 6 mg/mL HERCEPTIN
  Viscosity: 96.7 ± 4.7 cP
Sprague-Dawley rats; no longer evident by day 4
  Microscopic examination of injection sites: very minor, clinically insignificant, irritative effect
Sprague-Dawley rats; throughout the study
  Observed consequences of the injections compared with saline: macroscopically similar
Sprague-Dawley rats; various time points
  Edema scores (Draize) at injection sites: 0-2
REMICADE® [4]; 128 mg/mL REMICADE, isotonic (0.3 molal) excipient
  Viscosity: 25.8 ± 0.8 cP
REMICADE® [4]; 0.25M agent vs PB, Table 17
  Viscosity reduction: about 29 fold
REMICADE® [4]; 166 ± 4 mg/mL REMICADE, 0.25M agent, 25° C., pH 7.0
  Viscosity: 19.1 ± 0.2 cP
REMICADE® [4]; 215 ± 5 mg/mL REMICADE, [CSAA] 0 M, 25° C., pH 7.0
  Viscosity: 1557 ± 22 cP
REMICADE® [4]; 215 ± 5 mg/mL REMICADE, [CSAA] 0.20 M, 25° C., pH 7.0
  Viscosity: 81.3 ± 1.0 cP
REMICADE® [4]; 215 ± 5 mg/mL REMICADE, [CSAA] 0.25 M, 25° C., pH 7.0
  Viscosity: 53.7 ± 9.3 cP
REMICADE® [4]; 215 ± 5 mg/mL REMICADE, [CSAA] 0.35 M, 25° C., pH 7.0
  Viscosity: 38.2 ± 0.9 cP
REMICADE® [4]; 222 ± 6 mg/mL REMICADE, 0.25M agent, 25° C., pH 7.0
  Viscosity: 53.7 ± 9.3 cP
ARZERRA®
  Viscosity: 125 ± 7 cP
TYSABRI®; 237 ± 4 mg/mL TYSABRI
  Viscosity: 47.1 ± 2.1 cP
TYSABRI®; 276 ± 8 mg/mL TYSABRI
  Viscosity: 92.9 ± 2.6 cP
